Results taken from PMC6757289, “Design and Characterization of SGK3-PROTAC1, an Isoform Specific SGK3 Kinase PROTAC Degrader” (ACS Chemical Biology, 2019).
Like-named read-outs stand apart in the source and are kept apart here.

Key:
Experiment in all cases: kinase profiling panel
Assay type in all cases: biochemical
Conditions in all cases: read-out: % Activity Remaining
TLK1 = target: T1, TLK1 (Homo sapiens, UniProt Q9UKI8)
T1 sequence (Q9UKI8 1-766): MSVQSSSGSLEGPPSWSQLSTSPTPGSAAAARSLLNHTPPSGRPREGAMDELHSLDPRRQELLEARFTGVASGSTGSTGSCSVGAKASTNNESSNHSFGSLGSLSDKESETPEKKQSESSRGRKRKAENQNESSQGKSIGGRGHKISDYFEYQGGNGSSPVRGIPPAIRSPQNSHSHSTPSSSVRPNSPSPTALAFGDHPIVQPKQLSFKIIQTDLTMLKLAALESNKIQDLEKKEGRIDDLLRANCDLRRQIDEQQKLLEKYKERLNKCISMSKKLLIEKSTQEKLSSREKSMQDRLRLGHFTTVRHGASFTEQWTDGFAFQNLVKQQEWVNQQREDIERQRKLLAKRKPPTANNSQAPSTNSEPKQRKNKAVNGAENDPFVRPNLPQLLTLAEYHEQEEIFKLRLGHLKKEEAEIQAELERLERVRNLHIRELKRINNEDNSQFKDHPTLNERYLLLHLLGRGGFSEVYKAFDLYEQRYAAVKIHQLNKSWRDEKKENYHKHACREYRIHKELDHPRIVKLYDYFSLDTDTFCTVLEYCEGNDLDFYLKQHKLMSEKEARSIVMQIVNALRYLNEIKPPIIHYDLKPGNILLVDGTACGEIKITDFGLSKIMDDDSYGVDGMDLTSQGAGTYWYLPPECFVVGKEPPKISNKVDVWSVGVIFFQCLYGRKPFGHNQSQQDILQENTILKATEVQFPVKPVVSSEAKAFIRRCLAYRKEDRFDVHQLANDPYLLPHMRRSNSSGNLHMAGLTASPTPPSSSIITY
Description: (§1) Protein kinase profiling against a Dundee panel of 140 protein kinases was undertaken at the International Centre for Protein Kinase Profiling. The result for each kinase was presented as a mean kinase activity of the reaction taken in triplicate relative to a control sample treated with DMSO. Assay conditions and abbreviations are available at http://www.kinase-screen.mrc.ac.uk.

BRSK2 = target: T2, BRSK2 (Homo sapiens, UniProt Q8IWQ3)
T2 sequence (Q8IWQ3 1-736): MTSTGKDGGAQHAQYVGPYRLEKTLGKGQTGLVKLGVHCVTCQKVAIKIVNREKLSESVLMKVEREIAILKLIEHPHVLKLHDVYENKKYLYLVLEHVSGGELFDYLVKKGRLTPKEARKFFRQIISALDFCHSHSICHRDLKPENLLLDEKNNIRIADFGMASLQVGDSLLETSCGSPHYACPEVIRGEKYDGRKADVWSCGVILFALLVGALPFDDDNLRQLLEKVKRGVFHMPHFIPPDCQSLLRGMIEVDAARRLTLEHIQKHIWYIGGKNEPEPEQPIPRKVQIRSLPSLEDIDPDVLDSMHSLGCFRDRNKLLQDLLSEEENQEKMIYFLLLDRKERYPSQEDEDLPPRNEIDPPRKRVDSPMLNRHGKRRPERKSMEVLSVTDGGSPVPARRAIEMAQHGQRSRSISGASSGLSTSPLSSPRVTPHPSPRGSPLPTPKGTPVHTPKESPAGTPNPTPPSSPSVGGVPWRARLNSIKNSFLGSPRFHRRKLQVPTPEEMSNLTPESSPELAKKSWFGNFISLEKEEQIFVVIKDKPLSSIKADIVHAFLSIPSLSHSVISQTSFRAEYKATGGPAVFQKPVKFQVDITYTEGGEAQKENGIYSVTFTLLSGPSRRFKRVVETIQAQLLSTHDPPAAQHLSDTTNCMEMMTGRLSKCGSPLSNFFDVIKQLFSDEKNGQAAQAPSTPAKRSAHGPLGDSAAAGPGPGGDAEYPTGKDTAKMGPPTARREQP
Description: as §1

MARK2 = MARK2 (Homo sapiens, UniProt Q7KZI7)
Description: as §1

MST3 = MST3 (Homo sapiens, UniProt Q9Y6E0)
MST3, sequence (Q9Y6E0 whole entry): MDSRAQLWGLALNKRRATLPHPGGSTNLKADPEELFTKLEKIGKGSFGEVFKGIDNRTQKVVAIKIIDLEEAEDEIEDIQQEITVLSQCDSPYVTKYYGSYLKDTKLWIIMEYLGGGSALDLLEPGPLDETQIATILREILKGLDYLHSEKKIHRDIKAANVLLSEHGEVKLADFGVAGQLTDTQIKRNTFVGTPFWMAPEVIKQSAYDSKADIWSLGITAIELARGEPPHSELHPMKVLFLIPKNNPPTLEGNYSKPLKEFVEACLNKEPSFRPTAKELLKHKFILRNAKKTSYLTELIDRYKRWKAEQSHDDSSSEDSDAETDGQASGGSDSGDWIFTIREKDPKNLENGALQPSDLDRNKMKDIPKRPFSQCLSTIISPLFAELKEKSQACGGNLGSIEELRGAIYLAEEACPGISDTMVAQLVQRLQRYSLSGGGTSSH
Description: as §1

DYRK1A = DYRK1A (Homo sapiens, UniProt Q13627)
Description: as §1

BTK = BTK (Homo sapiens, UniProt Q06187)
Description: as §1

CAMKK beta = CAMKK beta (Homo sapiens, UniProt Q96RR4)
CAMKK beta, sequence (Q96RR4 whole entry): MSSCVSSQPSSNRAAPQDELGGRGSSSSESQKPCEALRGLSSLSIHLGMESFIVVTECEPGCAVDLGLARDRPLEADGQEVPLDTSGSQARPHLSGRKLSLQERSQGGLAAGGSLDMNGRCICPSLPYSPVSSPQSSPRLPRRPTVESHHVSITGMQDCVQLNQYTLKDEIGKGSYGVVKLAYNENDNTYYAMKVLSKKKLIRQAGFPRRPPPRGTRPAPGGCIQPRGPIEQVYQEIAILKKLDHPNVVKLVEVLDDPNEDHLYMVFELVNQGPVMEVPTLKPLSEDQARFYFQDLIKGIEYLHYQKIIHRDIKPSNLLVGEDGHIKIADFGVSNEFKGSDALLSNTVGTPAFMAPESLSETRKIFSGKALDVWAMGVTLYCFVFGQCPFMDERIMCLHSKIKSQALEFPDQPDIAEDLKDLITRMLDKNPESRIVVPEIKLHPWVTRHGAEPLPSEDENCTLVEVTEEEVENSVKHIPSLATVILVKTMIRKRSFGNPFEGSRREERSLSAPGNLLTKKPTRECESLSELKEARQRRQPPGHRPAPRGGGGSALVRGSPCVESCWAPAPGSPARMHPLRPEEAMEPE
Description: as §1

MSK1 = MSK1 (Homo sapiens, UniProt O75582)
MSK1, sequence (O75582 whole entry): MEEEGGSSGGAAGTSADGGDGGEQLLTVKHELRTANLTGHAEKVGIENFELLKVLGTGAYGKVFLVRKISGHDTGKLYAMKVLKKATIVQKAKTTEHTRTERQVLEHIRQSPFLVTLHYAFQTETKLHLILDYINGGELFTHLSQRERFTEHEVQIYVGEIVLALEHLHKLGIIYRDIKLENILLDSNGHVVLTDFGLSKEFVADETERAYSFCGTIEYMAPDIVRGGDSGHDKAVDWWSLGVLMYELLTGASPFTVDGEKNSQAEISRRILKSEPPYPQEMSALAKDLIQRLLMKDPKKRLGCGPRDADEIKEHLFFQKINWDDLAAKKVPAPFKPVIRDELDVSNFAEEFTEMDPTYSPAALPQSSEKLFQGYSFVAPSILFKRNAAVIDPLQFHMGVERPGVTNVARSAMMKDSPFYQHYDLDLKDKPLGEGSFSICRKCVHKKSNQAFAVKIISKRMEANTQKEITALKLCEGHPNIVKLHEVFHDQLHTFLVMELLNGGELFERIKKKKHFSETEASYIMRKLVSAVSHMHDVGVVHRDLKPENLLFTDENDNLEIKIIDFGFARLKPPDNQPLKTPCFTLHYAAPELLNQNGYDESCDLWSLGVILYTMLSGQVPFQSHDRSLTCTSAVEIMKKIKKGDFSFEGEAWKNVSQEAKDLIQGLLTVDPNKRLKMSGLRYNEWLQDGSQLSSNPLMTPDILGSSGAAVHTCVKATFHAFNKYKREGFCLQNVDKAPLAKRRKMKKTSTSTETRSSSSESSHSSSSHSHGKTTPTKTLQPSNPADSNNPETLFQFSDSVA
Description: as §1

PIM1 = PIM1 (Homo sapiens, UniProt P11309)
Description: as §1

MST4 = MST4 (Homo sapiens, UniProt Q9P289)
MST4, sequence (Q9P289 whole entry): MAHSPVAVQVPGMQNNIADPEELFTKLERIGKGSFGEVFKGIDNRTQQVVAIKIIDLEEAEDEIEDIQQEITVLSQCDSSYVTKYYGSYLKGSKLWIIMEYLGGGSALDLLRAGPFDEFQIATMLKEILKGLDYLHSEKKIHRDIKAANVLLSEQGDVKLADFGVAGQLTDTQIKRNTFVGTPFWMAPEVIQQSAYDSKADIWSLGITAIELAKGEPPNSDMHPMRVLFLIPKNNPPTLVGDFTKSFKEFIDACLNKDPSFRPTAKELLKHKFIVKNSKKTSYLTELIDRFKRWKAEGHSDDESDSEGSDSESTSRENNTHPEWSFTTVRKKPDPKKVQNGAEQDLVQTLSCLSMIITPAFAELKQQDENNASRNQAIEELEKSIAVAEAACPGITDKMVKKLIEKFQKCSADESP
Description: as §1

MKK2 = MKK2 (Homo sapiens, UniProt P36507)
Description: as §1

TrkA = TrkA (Homo sapiens, UniProt P04629)
TrkA, sequence (P04629 33-796): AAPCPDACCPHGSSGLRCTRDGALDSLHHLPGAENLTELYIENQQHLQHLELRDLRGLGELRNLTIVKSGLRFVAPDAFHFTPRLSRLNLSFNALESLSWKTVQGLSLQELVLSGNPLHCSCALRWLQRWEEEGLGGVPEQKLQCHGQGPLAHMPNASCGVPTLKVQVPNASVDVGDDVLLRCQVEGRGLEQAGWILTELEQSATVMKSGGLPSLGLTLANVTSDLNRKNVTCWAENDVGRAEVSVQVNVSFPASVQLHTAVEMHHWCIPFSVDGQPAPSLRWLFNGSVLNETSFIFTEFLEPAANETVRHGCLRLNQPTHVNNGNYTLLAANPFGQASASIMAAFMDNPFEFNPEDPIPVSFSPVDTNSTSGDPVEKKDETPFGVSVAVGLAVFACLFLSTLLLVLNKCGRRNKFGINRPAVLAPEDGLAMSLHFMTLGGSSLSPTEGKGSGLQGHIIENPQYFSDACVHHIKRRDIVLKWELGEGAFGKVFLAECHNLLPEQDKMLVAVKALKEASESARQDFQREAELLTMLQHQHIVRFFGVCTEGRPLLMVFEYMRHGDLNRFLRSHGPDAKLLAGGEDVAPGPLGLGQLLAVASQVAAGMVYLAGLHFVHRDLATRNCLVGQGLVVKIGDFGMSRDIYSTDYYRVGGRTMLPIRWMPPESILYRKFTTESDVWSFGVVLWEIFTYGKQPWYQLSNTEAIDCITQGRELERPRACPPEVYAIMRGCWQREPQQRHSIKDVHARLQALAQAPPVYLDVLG
Description: as §1

FGF-R1 = FGF-R1 (Homo sapiens, UniProt P11362)
Description: as §1

TTBK2 = TTBK2 (Homo sapiens, UniProt Q6IQ55)
Description: as §1

DAPK1 = DAPK1 (Homo sapiens, UniProt P53355)
DAPK1, sequence (P53355 whole entry): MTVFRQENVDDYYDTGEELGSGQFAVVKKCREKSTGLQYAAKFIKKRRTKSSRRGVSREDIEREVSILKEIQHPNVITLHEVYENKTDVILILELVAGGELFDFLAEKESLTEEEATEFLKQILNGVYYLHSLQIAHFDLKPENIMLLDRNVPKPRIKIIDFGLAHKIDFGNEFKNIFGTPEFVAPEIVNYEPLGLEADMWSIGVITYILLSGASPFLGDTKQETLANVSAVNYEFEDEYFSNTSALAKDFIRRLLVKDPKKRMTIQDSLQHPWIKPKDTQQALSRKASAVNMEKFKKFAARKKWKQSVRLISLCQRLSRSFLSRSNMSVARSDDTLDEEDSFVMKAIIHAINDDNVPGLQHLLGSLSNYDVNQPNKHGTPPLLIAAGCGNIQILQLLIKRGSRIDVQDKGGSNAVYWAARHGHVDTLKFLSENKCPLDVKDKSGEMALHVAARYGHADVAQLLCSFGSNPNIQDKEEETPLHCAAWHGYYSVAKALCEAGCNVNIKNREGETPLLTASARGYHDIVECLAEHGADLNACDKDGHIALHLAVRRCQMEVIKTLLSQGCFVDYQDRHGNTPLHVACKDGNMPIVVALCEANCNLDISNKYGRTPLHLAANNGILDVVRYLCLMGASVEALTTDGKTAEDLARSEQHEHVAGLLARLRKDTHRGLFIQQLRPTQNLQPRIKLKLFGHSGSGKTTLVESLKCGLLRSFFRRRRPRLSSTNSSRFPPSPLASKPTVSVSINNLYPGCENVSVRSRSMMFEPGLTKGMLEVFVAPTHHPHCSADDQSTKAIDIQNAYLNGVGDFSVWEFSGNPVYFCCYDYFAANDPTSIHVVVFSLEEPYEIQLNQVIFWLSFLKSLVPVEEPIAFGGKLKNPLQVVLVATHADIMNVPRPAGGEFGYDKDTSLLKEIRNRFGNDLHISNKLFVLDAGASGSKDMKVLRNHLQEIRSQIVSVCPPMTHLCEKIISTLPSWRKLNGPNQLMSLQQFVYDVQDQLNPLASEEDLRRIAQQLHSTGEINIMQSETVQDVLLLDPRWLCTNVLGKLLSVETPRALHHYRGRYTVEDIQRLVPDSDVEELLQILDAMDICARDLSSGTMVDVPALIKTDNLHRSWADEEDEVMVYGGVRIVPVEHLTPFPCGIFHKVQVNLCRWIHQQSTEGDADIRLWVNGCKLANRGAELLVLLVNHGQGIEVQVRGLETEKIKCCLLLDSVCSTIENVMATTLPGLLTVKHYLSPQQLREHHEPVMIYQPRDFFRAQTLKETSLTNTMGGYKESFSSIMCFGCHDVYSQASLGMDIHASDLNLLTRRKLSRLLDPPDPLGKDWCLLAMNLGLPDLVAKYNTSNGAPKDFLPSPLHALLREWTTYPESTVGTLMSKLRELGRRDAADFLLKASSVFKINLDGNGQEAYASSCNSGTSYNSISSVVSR
Description: as §1

PLK1 = PLK1 (Homo sapiens, UniProt P53350)
PLK1, sequence (P53350 whole entry): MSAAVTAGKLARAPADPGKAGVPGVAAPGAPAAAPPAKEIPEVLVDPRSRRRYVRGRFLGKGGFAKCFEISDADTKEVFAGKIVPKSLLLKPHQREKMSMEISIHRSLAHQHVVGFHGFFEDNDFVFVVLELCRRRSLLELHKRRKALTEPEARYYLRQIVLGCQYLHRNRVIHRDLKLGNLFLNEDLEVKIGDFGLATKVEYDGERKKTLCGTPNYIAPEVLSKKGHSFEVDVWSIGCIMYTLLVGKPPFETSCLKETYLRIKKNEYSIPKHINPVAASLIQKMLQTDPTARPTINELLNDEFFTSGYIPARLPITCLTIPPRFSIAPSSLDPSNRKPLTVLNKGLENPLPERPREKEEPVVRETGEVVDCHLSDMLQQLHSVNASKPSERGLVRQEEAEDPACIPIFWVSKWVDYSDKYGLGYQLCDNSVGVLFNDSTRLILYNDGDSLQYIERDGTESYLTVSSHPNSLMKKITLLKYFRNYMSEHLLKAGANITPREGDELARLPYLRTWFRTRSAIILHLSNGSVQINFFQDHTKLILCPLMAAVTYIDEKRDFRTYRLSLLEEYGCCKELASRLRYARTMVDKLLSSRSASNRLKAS
Description: as §1

SIK2 = SIK2 (Homo sapiens, UniProt Q9H0K1)
Description: as §1

Row | SMILES | remaining activity at 1 µM (TLK1; 1 µM) [%] | remaining activity at 1 µM (BRSK2; 1 µM) [%] | remaining activity at 1 µM (MARK2; 1 µM) [%] | remaining activity at 1 µM (MST3; 1 µM) [%] | remaining activity at 1 µM (DYRK1A; 1 µM) [%] | remaining activity at 1 µM (BTK; 1 µM) [%] | remaining activity at 1 µM (CAMKK beta; 1 µM) [%] | remaining activity at 1 µM (MSK1; 1 µM) [%] | remaining activity at 1 µM (PIM1; 1 µM) [%] | remaining activity at 1 µM (MST4; 1 µM) [%] | remaining activity at 1 µM (MKK2; 1 µM) [%] | remaining activity at 1 µM (TrkA; 1 µM) [%] | remaining activity at 1 µM (FGF-R1; 1 µM) [%] | remaining activity at 1 µM (TTBK2; 1 µM) [%] | remaining activity at 1 µM (DAPK1; 1 µM) [%] | remaining activity at 1 µM (PLK1; 1 µM) [%] | remaining activity at 1 µM (SIK2; 1 µM) [%] | remaining activity at 1 µM (TLK1) [%] | remaining activity at 1 µM (BRSK2) [%] | remaining activity at 1 µM (MARK2) [%] | other results
1 | Cc1ccc(F)c(S(=O)(=O)Nc2ccc(-c3nc(OC[C@H]4CN(CCCCCCOCCOCCOCC(=O)N[C@H](C(=O)N5C[C@H](O)C[C@H]5C(=O)NCc5ccc(-c6scnc6C)cc5)C(C)(C)C)CCO4)c4cn[nH]c4n3)cc2)c1 [SGK3-PROTAC1] | 102 | 97 | 102 | 102 | 105 | 97 | 99 | 50 | 94 | 106 | 114 | 112 | 108 | 94 | 100 | 98 | 95 |  |  |  | 
2 | COc1ccc(Cl)c(S(=O)(=O)Nc2ccc(-c3nc(OC[C@H]4CNCCO4)c4c(C)n[nH]c4n3)cc2)c1 [290-R, reference compound] |  |  |  |  |  |  |  |  |  |  |  |  |  |  |  |  |  | 89 | 102 | 113 | remaining activity at 1 µM (MST3): 57%; remaining activity at 1 µM (DYRK1A): 103%; remaining activity at 1 µM (BTK): 91%; remaining activity at 1 µM (CAMKK beta): 77%; remaining activity at 1 µM (MSK1): 10%; remaining activity at 1 µM (PIM1): 83%; remaining activity at 1 µM (MST4): 50%; remaining activity at 1 µM (MKK2): 41%; remaining activity at 1 µM (TrkA): 104%; remaining activity at 1 µM (FGF-R1): 104%; remaining activity at 1 µM (TTBK2): 114%; remaining activity at 1 µM (DAPK1): 87%; remaining activity at 1 µM (PLK1): 102%; remaining activity at 1 µM (SIK2): 91%
3 | Cc1ccc(F)c(S(=O)(=O)Nc2ccc(-c3nc(OC[C@H]4CN(CCCCCCOCCOCCOCC(=O)N[C@H](C(=O)N5C[C@@H](O)C[C@H]5C(=O)NCc5ccc(-c6scnc6C)cc5)C(C)(C)C)CCO4)c4cn[nH]c4n3)cc2)c1 [cisSGK3-PROTAC1] | 109 | 101 | 112 | 113 | 99 | 91 | 108 | 56 | 97 | 99 | 124 | 102 | 106 | 90 | 108 | 98 | 94 |  |  |  | 
4 | Cc1ccc(F)c(S(=O)(=O)Nc2ccc(-c3nc(OC[C@H]4CNCCO4)c4cn[nH]c4n3)cc2)c1 [308-R, reference compound] |  |  |  |  |  |  |  |  |  |  |  |  |  |  |  |  |  | 108 | 82 | 94 | remaining activity at 1 µM (MST3): 79%; remaining activity at 1 µM (DYRK1A): 81%; remaining activity at 1 µM (BTK): 59%; remaining activity at 1 µM (CAMKK beta): 106%; remaining activity at 1 µM (MSK1): 7%; remaining activity at 1 µM (PIM1): 104%; remaining activity at 1 µM (MST4): 98%; remaining activity at 1 µM (MKK2): 80%; remaining activity at 1 µM (TrkA): 71%; remaining activity at 1 µM (FGF-R1): 115%; remaining activity at 1 µM (TTBK2): 87%; remaining activity at 1 µM (DAPK1): 91%; remaining activity at 1 µM (PLK1): 86%; remaining activity at 1 µM (SIK2): 55%
